Data as given in US20250145606A1 (Arcus Biosciences, Inc., priority 2023, published 2025).
Read-outs that look alike come from different tables or passages of the source.

What was measured:
c-Kit = c-Kit (Homo sapiens (Human), UniProt P10721); experiment: Inhibition of c-Kit kinase activity (HTRF KinEASE-TK); assay type: biochemical; conditions: biochemical, HTRF KinEASE-TK
Summary of the method: (§1)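 Recombinant kinases (2 nM CSF1R and c-Kit, 10 nM PDGFRα/β, 2× working) preincubated 1 h with compound in 50 mM HEPES pH 7.4, 5 mM MgCl2 (c-Kit) or 10 mM (others), 2 mM MnCl2; 2× ATP: c-Kit 16 μM, PDGFRα 1 μM, PDGFRβ 40 μM, CSF1R 20 μM. 120 min reaction at rt; TR-FRET 665/620 nm; IC50 by 4-parameter fit.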

[1] = system: Phospho-KIT (Y703) in M07e cells; experiment: Phospho-KIT (Y703) cellular assay in M07e cells; assay type: cell-based; conditions: M-07e, M07e cells
Procedure: Phospho-KIT (Y703) Cellular Assay in M07e Cells
The day prior to assay, M07e cells (DSMZ, catalog #ACC 104) were serum starved. Cells were centrifuged and cell pellet resuspended in OptiMEM (Gibco, catalog #31985062) to a density of 1×10^6-2.5×10^6 cells per mL. Cells were then incubated overnight at 5% CO2 and 37° C. in an appropriately sized flask. On the day of the experiment, an 11 point, half log titration of test compound was pre-dispensed into 96-well round bottom polypropylene plates (Corning, catalog #3365). The serum starved M07e cells were centrifuged and resuspended to a cell density of 1×10^6 cells per mL with DPBS (Gibco, catalog #14190-144). Live/Dead Green Fixable viability dye (Invitrogen, catalog #L34970) was added as 1 μL/1 mL of cell suspension. Cells were then incubated in the dark at 4° C. for 30 min. Cells were washed by centrifugation and resuspension with DPBS+0.5% BSA (Gemini Bio Products, catalog #700110/100, 30% BSA solution). Cells were resuspended, separated into two equal volumes and again centrifuged. Cell pellets were resuspended with OptiMEM™ to a cell density of 1×10^6 cells per mL. Cells were then added to the appropriate compound plate at 100,000 cells per well in 100 μL and mixed. Plates were incubated at 5% CO2 and 37° C. for 50 min. Stem Cell Factor, SCF (R&D Systems, #255-SC/CF) was diluted in OptiMEM to 1 μg/mL and added to all wells as 10 μL for a final concentration of 90.9 ng/mL. Plates were incubated at 5% CO2 and 37° C. for 10 min. Incubation was stopped by addition of 110 μL 4% paraformaldehyde solution in PBS (Life Technologies, catalog #J19943.K2). Plates were incubated at rt for at least 15 min. Plates were then centrifuged and supernatant removed by flicking. Cells were washed once by resuspension in 200 μL DPBS+0.5% BSA, centrifuged, and supernatant removed by flicking. Cells were resuspended in 100 μL 1X Permeabilization buffer (Invitrogen, catalog #88882400) and plates incubated at rt for 30 min. Plates were centrifuged, supernatant removed by flicking, and cells resuspended in 50 μL primary antibody, anti-phospho-c-KIT (Tyr703) (Cell Signaling, catalog #3073), diluted to 1 μg/mL with permeabilization buffer. Plates were incubated at rt for 1 h. Plates were centrifuged, supernatant removed, and cells resuspended with 200 μL DPBS+0.5% BSA. Plates were again centrifuged, supernatant removed by flicking, and cells resuspended in 100 μL secondary antibody, goat anti-rabbit AlexaFluor647 (AF647) (Invitrogen, catalog #A21244) diluted to 1 μg/mL with DPBS+0.5% BSA. Plates were incubated at rt for 30 min. followed by centrifugation, supernatant removal, and cell resuspension with 200 μL DPBS+0.5% BSA. Cells were washed again by centrifugation, supernatant removal, and cell resuspension with 200 μL DPBS+0.5% BSA. Samples were then read by flow cytometry. The Forward: Side scatter plot was gated and that population was gated for live cells based on the Live/Dead Green staining. The geometric mean of AF647 of the live cell population was recorded. Percentage maximum activity in each test well was calculated based on DMSO (100% activity) and positive control treated cell wells (0% activity). The potencies (IC50 values) of test compounds were determined using a standard 4-parameter non-linear regression fit.

CSF1R = CSF1R (Homo sapiens (Human), UniProt P07333); experiment: Inhibition of CSF1R kinase activity (HTRF KinEASE-TK); conditions: biochemical, HTRF KinEASE-TK
Summary of the method: as §1

PDGFRβ = PDGFRβ (Homo sapiens (Human), UniProt P09619); experiment: Inhibition of PDGFRβ kinase activity (HTRF KinEASE-TK); conditions: biochemical, HTRF KinEASE-TK
Summary of the method: as §1

PDGFRα = PDGFRα (Homo sapiens (Human), UniProt P16234); experiment: Inhibition of PDGFRα kinase activity (HTRF KinEASE-TK); conditions: biochemical, HTRF KinEASE-TK
Summary of the method: as §1

[2] = Phospho-KIT (Y703), read-out: M07e Cell IC50
[3] = read-out: Phospho-KIT (Y703) cellular IC50

CSF1R, sequence (P07333 20-972): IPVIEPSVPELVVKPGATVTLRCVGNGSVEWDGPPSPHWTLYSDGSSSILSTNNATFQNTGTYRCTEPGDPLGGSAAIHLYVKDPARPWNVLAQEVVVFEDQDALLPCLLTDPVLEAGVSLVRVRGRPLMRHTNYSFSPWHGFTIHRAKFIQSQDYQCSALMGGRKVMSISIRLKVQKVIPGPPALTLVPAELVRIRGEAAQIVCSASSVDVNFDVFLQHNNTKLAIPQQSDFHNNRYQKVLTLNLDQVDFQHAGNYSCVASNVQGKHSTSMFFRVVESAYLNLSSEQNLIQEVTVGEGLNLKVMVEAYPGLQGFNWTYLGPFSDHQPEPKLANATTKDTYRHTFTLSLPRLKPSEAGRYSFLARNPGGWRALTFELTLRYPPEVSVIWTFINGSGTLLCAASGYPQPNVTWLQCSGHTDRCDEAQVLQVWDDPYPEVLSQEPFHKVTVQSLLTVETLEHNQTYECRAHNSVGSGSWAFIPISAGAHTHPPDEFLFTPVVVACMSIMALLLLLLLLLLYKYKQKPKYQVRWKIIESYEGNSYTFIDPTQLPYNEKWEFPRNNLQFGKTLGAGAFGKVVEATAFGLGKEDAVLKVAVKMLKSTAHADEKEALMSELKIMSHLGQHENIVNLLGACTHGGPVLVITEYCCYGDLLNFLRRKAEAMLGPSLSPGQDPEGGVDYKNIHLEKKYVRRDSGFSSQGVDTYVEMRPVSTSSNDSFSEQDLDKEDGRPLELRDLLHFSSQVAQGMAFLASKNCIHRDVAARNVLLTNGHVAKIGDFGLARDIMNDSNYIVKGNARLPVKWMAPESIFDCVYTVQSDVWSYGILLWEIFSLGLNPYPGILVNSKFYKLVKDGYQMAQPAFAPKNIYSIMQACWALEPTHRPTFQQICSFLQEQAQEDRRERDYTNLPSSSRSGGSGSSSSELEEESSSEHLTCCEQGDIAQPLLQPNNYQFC
PDGFRβ, sequence (P09619 33-1106): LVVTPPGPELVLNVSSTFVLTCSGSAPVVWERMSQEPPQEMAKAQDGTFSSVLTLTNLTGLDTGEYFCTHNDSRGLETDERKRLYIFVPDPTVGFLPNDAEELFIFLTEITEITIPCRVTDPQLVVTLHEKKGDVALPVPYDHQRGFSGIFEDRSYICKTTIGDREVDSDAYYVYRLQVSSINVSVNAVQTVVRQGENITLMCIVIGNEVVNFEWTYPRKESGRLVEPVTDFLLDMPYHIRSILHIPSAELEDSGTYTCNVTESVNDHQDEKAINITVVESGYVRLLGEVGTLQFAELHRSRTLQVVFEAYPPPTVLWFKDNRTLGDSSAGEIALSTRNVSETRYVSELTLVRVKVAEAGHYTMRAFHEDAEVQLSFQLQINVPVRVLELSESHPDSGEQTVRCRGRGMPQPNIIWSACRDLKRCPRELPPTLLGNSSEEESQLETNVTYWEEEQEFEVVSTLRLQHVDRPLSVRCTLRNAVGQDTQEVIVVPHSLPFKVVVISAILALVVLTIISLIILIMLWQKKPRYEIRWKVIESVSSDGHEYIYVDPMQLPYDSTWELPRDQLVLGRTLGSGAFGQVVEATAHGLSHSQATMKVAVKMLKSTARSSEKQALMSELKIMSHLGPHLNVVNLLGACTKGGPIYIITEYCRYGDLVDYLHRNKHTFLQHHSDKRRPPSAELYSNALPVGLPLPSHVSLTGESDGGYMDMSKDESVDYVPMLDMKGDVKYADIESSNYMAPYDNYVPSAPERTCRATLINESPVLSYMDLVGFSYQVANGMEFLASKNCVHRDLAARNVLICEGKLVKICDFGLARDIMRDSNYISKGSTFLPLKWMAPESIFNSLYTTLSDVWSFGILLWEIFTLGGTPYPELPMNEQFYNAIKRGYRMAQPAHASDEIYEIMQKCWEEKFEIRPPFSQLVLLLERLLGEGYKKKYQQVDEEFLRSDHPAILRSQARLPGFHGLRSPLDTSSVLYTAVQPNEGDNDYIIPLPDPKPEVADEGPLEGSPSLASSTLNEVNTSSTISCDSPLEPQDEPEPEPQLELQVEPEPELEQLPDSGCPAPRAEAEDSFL
PDGFRα, sequence (P16234 24-1089): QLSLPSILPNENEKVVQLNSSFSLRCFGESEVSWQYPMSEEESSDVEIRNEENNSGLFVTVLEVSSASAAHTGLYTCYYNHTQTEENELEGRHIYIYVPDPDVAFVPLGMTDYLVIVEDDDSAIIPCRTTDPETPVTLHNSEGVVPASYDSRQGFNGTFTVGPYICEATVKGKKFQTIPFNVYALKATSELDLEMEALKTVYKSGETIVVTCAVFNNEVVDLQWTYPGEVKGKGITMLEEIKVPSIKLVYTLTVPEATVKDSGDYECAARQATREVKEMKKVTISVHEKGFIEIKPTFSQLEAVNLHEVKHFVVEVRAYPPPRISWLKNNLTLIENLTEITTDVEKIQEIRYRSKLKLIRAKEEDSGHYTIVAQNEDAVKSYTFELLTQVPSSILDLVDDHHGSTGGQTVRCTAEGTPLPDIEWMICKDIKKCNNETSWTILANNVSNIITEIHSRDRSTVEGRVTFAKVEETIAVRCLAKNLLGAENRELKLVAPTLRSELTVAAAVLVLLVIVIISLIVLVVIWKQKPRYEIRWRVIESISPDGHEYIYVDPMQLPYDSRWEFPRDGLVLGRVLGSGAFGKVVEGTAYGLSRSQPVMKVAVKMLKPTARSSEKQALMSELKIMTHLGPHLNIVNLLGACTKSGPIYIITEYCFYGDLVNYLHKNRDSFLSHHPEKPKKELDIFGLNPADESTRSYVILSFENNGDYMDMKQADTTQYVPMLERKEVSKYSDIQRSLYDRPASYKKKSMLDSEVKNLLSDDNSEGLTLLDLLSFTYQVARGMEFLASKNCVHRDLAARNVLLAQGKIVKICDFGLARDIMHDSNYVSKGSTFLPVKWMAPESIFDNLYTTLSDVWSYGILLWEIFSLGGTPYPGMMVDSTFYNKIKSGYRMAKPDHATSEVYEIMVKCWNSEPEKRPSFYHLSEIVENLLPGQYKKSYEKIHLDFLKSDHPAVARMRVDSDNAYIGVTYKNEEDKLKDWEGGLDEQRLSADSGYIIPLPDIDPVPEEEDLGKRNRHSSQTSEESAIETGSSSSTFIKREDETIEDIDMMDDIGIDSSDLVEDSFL
c-Kit, sequence (P10721 26-976): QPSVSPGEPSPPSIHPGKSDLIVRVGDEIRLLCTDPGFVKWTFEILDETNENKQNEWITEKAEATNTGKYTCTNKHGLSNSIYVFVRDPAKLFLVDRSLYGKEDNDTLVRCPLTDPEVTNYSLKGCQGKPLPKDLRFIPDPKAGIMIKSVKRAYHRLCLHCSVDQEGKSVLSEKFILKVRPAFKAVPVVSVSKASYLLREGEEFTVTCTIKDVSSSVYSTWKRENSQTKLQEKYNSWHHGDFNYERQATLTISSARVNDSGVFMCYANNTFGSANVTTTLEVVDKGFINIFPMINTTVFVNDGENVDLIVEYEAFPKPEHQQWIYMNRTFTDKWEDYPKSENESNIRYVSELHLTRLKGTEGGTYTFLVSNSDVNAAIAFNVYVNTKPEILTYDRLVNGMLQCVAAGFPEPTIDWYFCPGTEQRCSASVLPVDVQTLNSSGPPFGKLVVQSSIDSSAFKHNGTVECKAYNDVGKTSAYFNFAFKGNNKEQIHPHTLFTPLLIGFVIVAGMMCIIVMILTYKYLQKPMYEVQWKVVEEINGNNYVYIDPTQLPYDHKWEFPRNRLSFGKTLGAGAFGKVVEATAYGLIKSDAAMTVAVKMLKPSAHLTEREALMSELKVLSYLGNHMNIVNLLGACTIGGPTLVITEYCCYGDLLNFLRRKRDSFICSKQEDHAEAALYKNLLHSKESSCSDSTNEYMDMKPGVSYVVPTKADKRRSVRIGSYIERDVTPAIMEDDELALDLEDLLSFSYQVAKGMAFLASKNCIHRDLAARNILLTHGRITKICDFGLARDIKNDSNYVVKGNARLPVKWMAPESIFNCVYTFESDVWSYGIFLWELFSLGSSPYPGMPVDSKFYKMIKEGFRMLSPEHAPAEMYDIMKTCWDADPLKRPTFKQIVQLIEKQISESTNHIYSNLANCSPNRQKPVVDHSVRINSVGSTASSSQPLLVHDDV

| IC50 (c-Kit) | IC50 [1, 2] | IC50 (CSF1R) | IC50 (PDGFRβ) | IC50 (PDGFRα) | IC50 [1, 3] | SMILES |
| --- | --- | --- | --- | --- | --- | --- |
| < 100 nM | < 100 nM | > 1000 nM | > 1000 nM | > 1000 nM |  | Cc1ncc(C(=O)Nc2cc(C(=O)Nc3cnc(OC[C@@H]4CC4(F)F)cn3)c(F)cc2C)s1 [Example 58, N-[5-[[5-[[(1S)-2,2-difluorocyclopropyl]methoxy]pyrazin-2-yl]carbamoyl]-4-fluoro-2-methylphenyl]-2-methyl-1,3-thiazole-5-carboxamide] |
| < 100 nM | 100 to 1000 nM | > 1000 nM | > 1000 nM | > 1000 nM |  | COC[C@H]1CCCN1c1cnc(NC(=O)c2cc(NC(=O)c3cnc(C)s3)c(C)cc2F)cn1 [Example 90, N-(5-{N-5-[(R)-2-(methoxymethyl)-1-pyrrolidinyl]-2-pyrazinylcarbamoyl}-4-fluoro-2-tolyl)-2-methyl-1,3-thiazole-5-carboxamide] |
| < 100 nM | < 100 nM | > 1000 nM | > 1000 nM | > 1000 nM |  | Cc1ncc(C(=O)Nc2cc(C(=O)Nc3ccc(OCC(F)F)cn3)c(F)cc2C)s1 [Example 36, N-[5-[[5-(2,2-difluoroethoxy)pyridin-2-yl]carbamoyl]-4-fluoro-2-methylphenyl]-2-methyl-1,3-thiazole-5-carboxamide] |
| < 100 nM | < 100 nM | > 1000 nM | > 1000 nM | > 1000 nM |  | Cc1ncc(C(=O)Nc2cc(C(=O)Nc3cnc(N4CC[C@@H](F)C4)cn3)c(F)cc2C)s1 [Example 94, N-[4-fluoro-5-[[5-[(3R)-3-fluoropyrrolidin-1-yl]pyrazin-2-yl]carbamoyl]-2-methylphenyl]-2-methyl-1,3-thiazole-5-carboxamide] |
| 100 to 1000 nM |  | > 1000 nM | > 1000 nM | > 1000 nM | < 100 nM | Cc1ncc(C(=O)Nc2cc(C(=O)NCc3ccc(OC(F)(F)F)cc3)c(F)cc2C)s1 [Example 267, N-[4-fluoro-2-methyl-5-[[4-(trifluoromethoxy)phenyl]methylcarbamoyl]phenyl]-2-methyl-1,3-thiazole-5-carboxamide] |
| < 100 nM | < 100 nM | 100 to 1000 nM | < 100 nM | > 1000 nM |  | Cc1cc(F)c(C(=O)Nc2ccc(COC(F)F)cn2)cc1NC(=O)c1cnc(N)s1 [Example 254, 2-Amino-N-[5-[[5-(difluoromethoxymethyl)pyridin-2-yl]carbamoyl]-4-fluoro-2-methylphenyl]-1,3-thiazole-5-carboxamide] |
| < 100 nM | < 100 nM | > 1000 nM | > 1000 nM | > 1000 nM |  | Cc1ncc(C(=O)Nc2cc(C(=O)Nc3cnc(N4CCC(F)(F)C4)cn3)c(F)cc2C)s1 [Example 92, N-[5-[[5-(3,3-difluoropyrrolidin-1-yl)pyrazin-2-yl]carbamoyl]-4-fluoro-2-methylphenyl]-2-methyl-1,3-thiazole-5-carboxamide] |
| < 100 nM | < 100 nM | > 1000 nM | > 1000 nM | > 1000 nM |  | Cc1ncc(C(=O)Nc2cc(C(=O)Nc3cccc(CC(F)(F)F)n3)c(F)cc2C)s1 [Example 52, N-[4-fluoro-2-methyl-5-[[6-(2,2,2-trifluoroethyl)pyridin-2-yl]carbamoyl]phenyl]-2-methyl-1,3-thiazole-5-carboxamide] |
| < 100 nM |  | > 1000 nM | > 1000 nM | > 1000 nM | < 100 nM | Cc1ncc(C(=O)Nc2cc(C(=O)NCc3cccc(F)c3F)c(F)cc2C)s1 [Example 265, N-[5-[(2,3-difluorophenyl)methylcarbamoyl]-4-fluoro-2-methylphenyl]-2-methyl-1,3-thiazole-5-carboxamide] |
| 100 to 1000 nM | 100 to 1000 nM | > 1000 nM | > 1000 nM | > 1000 nM |  | Cc1ncc(C(=O)Nc2cc(C(=O)Nc3cnc(OCC4CC4)cn3)c(F)cc2C)s1 [Example 88, N-{5-[N-5-(cyclopropylmethoxy)-2-pyrazinylcarbamoyl]-4-fluoro-2-tolyl}-2-methyl-1,3-thiazole-5-carboxamide] |
| < 100 nM | < 100 nM | 100 to 1000 nM | 100 to 1000 nM | < 100 nM |  | Cc1ncc(C(=O)Nc2cc(C(=O)N[C@@H]3C[C@@H]3c3ccccc3Cl)c(F)cc2C)s1 [Example 101, N-[5-[[(1R,2R)-2-(2-chlorophenyl)cyclopropyl]carbamoyl]-4-fluoro-2-methylphenyl]-2-methyl-1,3-thiazole-5-carboxamide] |
| 100 to 1000 nM |  | > 1000 nM | > 1000 nM | > 1000 nM | < 100 nM | Cc1ncc(C(=O)Nc2cc(C(=O)NCc3ccc(OC(F)(F)F)c(F)c3)c(F)cc2C)s1 [Example 269, N-[4-fluoro-5-[[3-fluoro-4-(trifluoromethoxy)phenyl]methylcarbamoyl]-2-methylphenyl]-2-methyl-1,3-thiazole-5-carboxamide] |
| < 100 nM |  | > 1000 nM | > 1000 nM | > 1000 nM | < 100 nM | Cc1ncc(C(=O)Nc2cc(C(=O)NCc3cc(F)cc(F)c3)c(F)cc2C)s1 [Example 264, N-[5-[(3,5-difluorophenyl)methylcarbamoyl]-4-fluoro-2-methylphenyl]-2-methyl-1,3-thiazole-5-carboxamide] |
| < 100 nM | < 100 nM | > 1000 nM | > 1000 nM | > 1000 nM |  | Cc1ncc(C(=O)Nc2cc(C(=O)Nc3cnc(N4CC(O)C4)cn3)c(F)cc2C)s1 [Example 71, N-(4-fluoro-5-((5-(3-hydroxyazetidin-1-yl)pyrazin-2-yl)carbamoyl)-2-methylphenyl)-2-methylthiazole-5-carboxamide] |
| 100 to 1000 nM |  | > 1000 nM | > 1000 nM | > 1000 nM | 100 to 1000 nM | Cc1ncc(C(=O)Nc2cc(C(=O)NCc3ccc(OC(F)(F)F)cc3F)c(F)cc2C)s1 [Example 270] |
| < 100 nM | < 100 nM | > 1000 nM | > 1000 nM | > 1000 nM |  | Cc1ncc(C(=O)Nc2cc(C(=O)Nc3ccc(OC(C)C)cn3)c(F)cc2Cl)s1 [Example 48, N-[2-chloro-4-fluoro-5-[(5-propan-2-yloxypyridin-2-yl)carbamoyl]phenyl]-2-methyl-1,3-thiazole-5-carboxamide] |
| < 100 nM | < 100 nM | 100 to 1000 nM | 100 to 1000 nM | 100 to 1000 nM |  | Cc1ncc(C(=O)Nc2cc(C(=O)Nc3cc(CC4CC4)ncn3)c(F)cc2C)s1 [Example 50, N-(5-((6-(cyclopropylmethyl)pyrimidin-4-yl)carbamoyl)-4-fluoro-2-methylphenyl)-2-methylthiazole-5-carboxamide] |
| < 100 nM | < 100 nM | > 1000 nM |  |  |  | Cc1ncc(C(=O)Nc2cc(C(=O)Nc3cncc(C4CC4)c3)c(F)cc2C)s1 [Example 53, N-[5-[(5-cyclopropylpyridin-3-yl)carbamoyl]-4-fluoro-2-methylphenyl]-2-methyl-1,3-thiazole-5-carboxamide] |
